Three compounds from patent publication US20060052457A1, “Use of ppar alpha agonists for the treatment of vascular and renal diseases” (priority 2002, published 2006) can be followed below.

“Also recorded” adds a separate entry of the source.

Data set [1] deals with porcine coronary artery smooth muscle cells. Kind of data set: [3H]thymidine incorporation (DNA synthesis) after PDGF stimulation, porcine coronary artery SMCs. As to conditions: PDGF 0.1 μg, 72 h. Type of data set: cell-based. The method, then:
(§1) SMCs were prepared by explant culture as previously described, grown in 24-well culture dishes to 70% confluence and then placed into serum-free DMEM supplemented with insulin, ascorbate, pyruvate and selenium for 5 days. These conditions result in the cessation of cell growth, and markers of the contractile state are expressed. The cells were subsequently treated with PDGF (0.1 μg) in the presence or absence of WY-14643, and 2 μCi/mL [^3H]thymidine were added to the culture medium 24 hours later. Seventy-two hours following PDGF treatment, incorporation of thymidine into trichloroacetate-precipitable material was measured. The data, which is presented as means±s.e. (n=3), are shown for porcine SMCs (panel A), human saphenous vein SMCs (panel B) and human internal mammary artery SMCs (panel C). All values have been normalized relative to the incorporation in unstimulated quiescent cells (control=100).
Quiescent SMCs were treated with PDGF (01. μg/ml) in the presence and absence of PGJ2, and incorporation of thymidine was measured as previously described. The data are presented as means±s.e. (n=3).
Quiescent SMCs were treated with PDGF (0.1 μg) in the presence or absence of clofibrate, and incorporation of thymidine was measured as previously described. The data are presented as means±s.e. (n=3).

Data set [2] shares this test system. The experiment in a line: Basal DNA synthesis without mitogenic stimulation, quiescent porcine coronary artery SMCs. Type of data set: cell-based. The note with it: for basal DNA synthesis in the absence of mitogenic stimulation: quiescent porcine coronary artery SMCs. The method, then:
(§2) Quiescent SMCs (panel A) and H4IIE cells (panel B) were treated with PGJ2 and incorporation of thymidine was measured as previously described. Quiescent SMCs were also treated with WY-14643 (panel C) and incorporation of thymidine was measured. The data are presented as means±s.e. (n=3).

The subject of data set [3] is H4IIE hepatoma cells. Kind of data set: Basal DNA synthesis without mitogenic stimulation, quiescent H4IIE hepatoma cells. It is filed as cell-based. Here is the method: as §2
In data set [4] the test system is human saphenous vein SMCs. The experiment in a line: [3H]thymidine incorporation (DNA synthesis) after PDGF stimulation, human saphenous vein SMCs. As to conditions: PDGF 0.1 μg, 72 h. It is filed as cell-based. The method, then:
as §1, with “C).” for “C). All values have been normalized relative to the incorporation in unstimulated quiescent cells (control=100).”

The test system of data set [5] is human internal mammary artery SMCs. Kind of data set: [3H]thymidine incorporation (DNA synthesis) after PDGF stimulation, human internal mammary artery SMCs. Type of data set: cell-based. As to conditions: PDGF 0.1 μg, 72 h. The method, then:
as §1, with “C).” for “C). All values have been normalized relative to the incorporation in unstimulated quiescent cells (control=100).”
On the technique in general: Dividing cells build labelled thymidine or BrdU into new DNA.

Data set [6] has as its system A10 smooth muscle cells. The experiment in a line: [3H]thymidine incorporation (DNA synthesis) by A10 smooth muscle cells after PDGF or IGF-1. Type of data set: cell-based, rat. The note with it: A10 SMCs, 72 h. Here is the method:
[…] were cultured and quiescent cells were prepared in 24-well culture dishes as described in the legend for FIG. 2. The cells were treated with PDGF (0.1 μg) or IGF-1 (0.1 μM) in the presence or absence of WY-14643, and 2 μCi/mL [^3H]thymidine were added to the medium concurrent with the mitogens. Seventy-two hours following treatment, the cells were lysed and thymidine incorporation was measured as described above. […] (n=3), for A10 cells treated with PDGF (panel A) and IGF-1 (panel B).

Data set [7] relates to Porcine coronary arteries. The experiment in a line: Organ culture model of restenosis (balloon angioplasty ex vivo, neointimal index). Type of data set: cell-based. The note with it: 250 μM continuous, 14 days in culture after balloon angioplasty ex vivo. The method, then:
Porcine coronary arteries were subjected to balloon angioplasty ex vivo and placed into culture for 14 days. Treatment with WY-14643 (250 μM) was continuous over the entire time period. Subsequently, the vessel segments were sectioned and morphometry was employed to quantify the extent of restenosis. The neointimal index is defined as: neointimal area/medial area. The data are presented as means±s.e. (n=8). Control=no balloon angioplasty.

For data set [8], the system named is H4IIE hepatoma cells. The experiment in a line: [3H]thymidine incorporation (DNA synthesis) by H4IIE hepatoma cells after IGF-1. Type of data set: cell-based. As to conditions: IGF-1 0.1 μM, 72 h. Here is the method: H4IIE hepatoma cells were cultured and quiescent cells were prepared in 24-well culture dishes by placing the cells into serum-free α-MEM for 3 days. The cells were treated with IGF-1 (0.1 μM) in the presence or absence of WY-14643, and 2 μCi/mL [^3H]thymidine were added concurrent with the treatment. Seventy-two hours following treatment, the cells were lysed and thymidine incorporation was measured as described above. The data are presented as means+/−s.e. (n=3).

The test system of data set [9] is human proximal tubule cells. The experiment in a line: Growth (cell number, Coulter counter) of human proximal tubule cells. It is filed as cell-based. The method, then: Human proximal tubule cells were purchased from Clonetics and propagated in 24-well culture dishes with Renal Epithelial Cell Basal medium (REBM) containing 0.5% fetal bovine serum (FBS). Treatments were added once the cells reached 40% confluence. Incubation was continued for 4 days, at which time the cells were detached by trypsinization and cell number measured with a Coulter counter. All comparisons are relative to a cell population treated with 5 μg/ml aphidicolin, a non-toxic inhibitor of cell proliferation. The data are presented as means+/−s.e. (n=6).

In data set [10] the test system is smooth muscle cells. Kind of data set: DNA synthesis by smooth muscle cells with PPAR-gamma agonists (FIG. 13). It is filed as cell-based.

As to `CCCCC[C@H](O)/C=C/[C@H]1C(=O)C=C[C@@H]1C/C=C\CCCC(=O)O` [PGJ2], the “DNA synthesis (thymidine incorporation) in response to PDGF stimulation” value in data set [1] is “inhibits DNA synthesis; also recorded: is inhibitory”. The “basal DNA synthesis in the absence of mitogenic stimulation” value in [2] and in [3] was “inhibits basal DNA synthesis” throughout.

Turning to `Cc1cccc(Nc2cc(Cl)nc(SCC(=O)O)n2)c1C` [WY-14643], the results for the “DNA synthesis (thymidine incorporation) in response to PDGF stimulation” value in data set [1], in data set [4] and in data set [5] were “inhibited DNA synthesis; also recorded: can inhibit smooth muscle cell proliferation”, “inhibited DNA synthesis” and “inhibited DNA synthesis”, respectively. The “DNA synthesis in response to IGF-1 stimulation” value in data set [6] (IGF-1 0.1 μM) is reported as “does not inhibit DNA synthesis; also recorded: could not inhibit the growth”. Moreover, the “DNA synthesis in response to PDGF stimulation” value in data set [6] (PDGF 0.1 μg) is given as “does not inhibit DNA synthesis; also recorded: could not inhibit the growth”. For the same compound, in [7], the “neointimal proliferation / restenosis (neointimal index)” value is on record as “inhibits neointimal proliferation; also recorded: prevent restenosis”. In addition, the “DNA synthesis in response to stimulation by IGF-1” value in data set [8] is reported as “inhibits DNA synthesis; also recorded: prevented cell growth”. In addition, the “growth of human proximal tubule cells (cell number)” value in data set [9] (4 days incubation, relative to aphidicolin 5 μg/ml) was “prevented cell growth; also recorded: effectively inhibits the growth”. In addition, in data set [9] (primary cultures), the “apparent toxicity in primary human renal proximal tubule cells” value is “without apparent toxicity”. The “basal DNA synthesis in the absence of mitogenic stimulation” value in data set [2] is “has no effect”. In addition, in [2] (stated with reference to FIG. 9), the “apparent toxicity / cytotoxicity (FIG. 9)” value is on record as “without apparent toxicity”.

For the compound `CCc1ccc(CCOc2ccc(CC3SC(=O)NC3=O)cc2)nc1` (stereo not drawn) [piaglitazone], the “inhibition of DNA synthesis by smooth muscle cells” value in [10] is “are not”.
